Type in all cases: cell-based
The test system of one experiment is MRC-5. Briefly: Anti-proliferation IC50, MRC-5. The conditions noted are these: Homo sapiens, MRC5; Table 2, compounds of formula II.
For another experiment, the system named is A549. Briefly: Anti-proliferation IC50, A549. The conditions noted are these: Homo sapiens, Table 2, compounds of formula II, read-out: Anti-proliferation IC50 A549.
Another experiment relates to Hep-G2. Briefly: Anti-proliferation IC50, Hep-G2. The settings on record: Homo sapiens, HepG2; Table 2, compounds of formula II; read-out: Anti-proliferation IC50 Hep-G2.
The test system of a further experiment is VERO. Briefly: Anti-proliferation IC50, VERO. The settings on record: Chlorocebus sabaeus, Table 2, compounds of formula II, read-out: Anti-proliferation IC50 VERO.
Another experiment has as its system MDA-MB-231. The experiment is described as follows: Anti-proliferation IC50, MDA-MB-231. The settings on record: Homo sapiens, Table 2, compounds of formula II, read-out: Anti-proliferation IC50 MDA-MB-231.
Another experiment has as its system MCF-7. Briefly: Anti-proliferation IC50, MCF-7. The conditions noted are these: Homo sapiens, MCF7; Table 2, compounds of formula II; read-out: Anti-proliferation IC50 MCF-7.

Take `CC[C@@H]1OC(=O)[C@@H](C)[C@H](O[C@H]2C[C@@](C)(OC)[C@@H](O)[C@H](C)O2)[C@@H](C)[C@H](O[C@H]2O[C@@H](C)C[C@@H](N(C)C)[C@@H]2OC(=O)/C=C/C(=O)OC)C(C)(O)C[C@H](C)CN(C)[C@@H](C)[C@H](O)[C@@]1(C)O` (stereo partly drawn): the IC50 with MRC-5 worked out at 68.3 µM; in the experiment on A549, 284 µM; in the experiment with Hep-G2, 118 µM; in the experiment on VERO it was 238 ± 29.1 µM; in the experiment with MDA-MB-231, 118 µM; in the experiment on MCF-7 it was 278 µM.
Turning to `CCCCOC(=O)/C=C/C(=O)O[C@@H]1[C@@H](O[C@H]2[C@H](C)[C@@H](O[C@H]3C[C@@](C)(OC)[C@@H](O)[C@H](C)O3)[C@H](C)C(=O)O[C@@H](CC)[C@](C)(O)[C@@H](O)[C@H](C)N(C)C[C@@H](C)CC2(C)O)O[C@@H](C)C[C@H]1N(C)C` (stereo partly drawn), the IC50 turned out to be 43.6 ± 8.5 µM in the experiment on MRC-5; 141 ± 4.3 µM with A549; 63.6 ± 7.7 µM in the experiment on Hep-G2; 126 ± 2.4 µM with VERO; 29.6 ± 3 µM with MDA-MB-231; 50 ± 1.5 µM in the experiment on MCF-7.
With `CCCCOC(=O)/C=C/C(=O)N(C)[C@@H]1C[C@H](C)O[C@H](O[C@H]2[C@H](C)[C@@H](O[C@H]3C[C@@](C)(OC)[C@@H](O)[C@H](C)O3)[C@H](C)C(=O)O[C@@H](CC)[C@](C)(O)[C@@H](O)[C@H](C)N(C)C[C@@H](C)CC2(C)O)[C@H]1O` (stereo partly drawn), the IC50 in the experiment on MRC-5 came to 78.9 ± 2.6 µM; in the experiment with A549, 111 ± 4.6 µM; in the experiment on Hep-G2, 64.9 ± 2.4 µM; with VERO, 97.2 ± 15.5 µM; in the experiment on MDA-MB-231, 34.8 ± 2.8 µM; in the experiment with MCF-7, 39.3 ± 7.1 µM.

Values taken from patent US20240076293A1, “Compositions and Methods for Inhibiting Fibrosis, Inflammation and Cancer” (Georgia Tech Research Corporation, priority 2020, published 2024).
